Assay results from ChEMBL document CHEMBL6096703 (J Med Chem, 2025).
Calls of active or inactive are those of the source. No cut-off for these calls is given here.

How the values were obtained:
[1] = target: T1, Poly [ADP-ribose] polymerase 2 (Homo sapiens, UniProt Q9UGN5); assay: Inhibition of PARP2 (unknown origin) at 1 uM preincubated with compound for 10 mins followed by DNA and NAD+ addition and measured after 60 mins by chemiluminescence based envision reader analysis relative to control; conditions: time 70.0 min
[2] = Half life in male Balb/c mouse at 1 mg/kg, po measured upto 96 hrs by LC-MS/MS analysis; assay type: ADME, organism-based; conditions: in vivo, po, 1 mg/kg, 96 h
[3] = Cmax in male Balb/c mouse at 1 mg/kg, iv measured upto 96 hrs by LC-MS/MS analysis; assay type: ADME, organism-based; conditions: in vivo
[4] = Tmax in male Balb/c mouse at 1 mg/kg, iv measured upto 96 hrs by LC-MS/MS analysis; assay type: ADME, organism-based; conditions: in vivo
[5] = Cmax in rat at 2.5 mg/kg, iv measured upto 96 hrs by LC-MS/MS analysis; assay type: ADME, organism-based; conditions: in vivo
[6] = Cmax in rat at 2.5 mg/kg, po measured upto 96 hrs by LC-MS/MS analysis; assay type: ADME, organism-based; conditions: in vivo
[7] = Apparent volume of distribution in rat at 2.5 mg/kg, iv measured upto 96 hrs by LC-MS/MS analysis; assay type: ADME, organism-based; conditions: in vivo, read-out: Vz
[8] = tested on: DLD-1; assay: Inhibition of colony formation in wild type human DLD-1 cells assessed as reduction in survival rate at 2.5 to 20 uM incubated for 10 days by crystal violet staining based assay; assay type: functional, cell-based; conditions: dose 2.5-20 µM, time 10.0 day
[9] = tested on: MDA-MB-436; assay: Induction of apoptosis in human MDA-MB-436 cells assessed as early apoptotic cells at 10 nM incubated for 3 days by Annexin V/ PI staining based flow cytometry (reference value: 12.8%); assay type: functional; conditions: time 3 day
[10] = tested on: MDA-MB-436; assay: Induction of apoptosis in human MDA-MB-436 cells assessed as late apoptotic cells at 10 nM incubated for 3 days by Annexin V/ PI staining based flow cytometry (reference value: 6.57%); assay type: functional; conditions: time 3 day
[11] = tested on: MDA-MB-436; assay: Induction of apoptosis in human MDA-MB-436 cells assessed as early apoptotic cells at 100 nM incubated for 3 days by Annexin V/ PI staining based flow cytometry (reference value: 12.8%); assay type: functional; conditions: time 3 day
[12] = tested on: MDA-MB-436; assay: Induction of cell cycle arrest in human MDA-MB-436 cells assessed as accumulation of cells at G0/G1 phase at 10 nM incubated for 3 days by PI staining based flow cytometric analysis (Rvb =56.18%); assay type: functional; conditions: time 3 day
[13] = tested on: MDA-MB-436; assay: Induction of cell cycle arrest in human MDA-MB-436 cells assessed as accumulation of cells at G2/M phase at 10 nM incubated for 3 days by PI staining based flow cytometric analysis (Rvb =24.88%); assay type: functional; conditions: time 3 day
[14] = tested on: MDA-MB-436; assay: Induction of DNA damage in human MDA-MB-436 cells assessed as increase in gammaH2AX foci at 0.1 to 1000 nM incubated for 3 days by DAPI staining based immunofluorescence analysis; assay type: functional, cell-based; conditions: dose 0.1-1000 nM, time 3.0 day
[15] = tested on: MDA-MB-436; assay: Antitumor activity against human MDA-MB-436 cells xenografted in female NOD/SCID mouse assessed as tumor regression rate at 1 mg/kg, po administered once every other day for 28 days relative to control; assay type: functional; conditions: time 28 day
[16] = Toxicity in female NOD/SCID mouse xenografted with human MDA-MB-436 cells assessed as histological changes in heart at 3 mg/kg, po administered once every other day for 28 days by H and E staining based analysis; assay type: organism-based; conditions: in vivo, 672 h, time 28 day
[17] = tested on: MDA-MB-436; assay: Antitumor activity against human MDA-MB-436 cells xenografted in female NOD/SCID mouse assessed as weaker Ki67 staining at 0.3 to 3 mg/kg, po administered once every other day for 28 days by immunohistochemical analysis; assay type: functional, organism-based; conditions: dose 0.3-3 mg/kg, time 28.0 day
[18] = Acute toxicity in Kunming mouse assessed as mortality at 100 to 300 mg/kg administered orally via gavage for 14 days; assay type: organism-based; conditions: in vivo, po, 336 h, dose 100-300 mg/kg, time 14 day
[19] = Acute toxicity in Kunming mouse assessed as change in cellular morphology of heart at 100 mg/kg administered once every other day via gavage for 14 days by H and E staining based analysis; assay type: organism-based; conditions: in vivo, po, 336 h, time 14 day
[20] = target: T1, Poly [ADP-ribose] polymerase 2; assay: Binding affinity to PARP2 (unknown origin) assessed as DNA trapping activity incubated for 1 hr by Envision 2105 plate reader analysis
[21] = Sub-acute toxicity in Kunming mouse assessed as change ALTL level at 100 to 300 mg/kg administered via gavage for 14 days; assay type: organism-based; conditions: in vivo, po, 336 h, dose 100-300 mg/kg, time 14 day
[22] = Sub-acute toxicity in Kunming mouse assessed as change CK level at 100 to 300 mg/kg administered via gavage for 14 days; assay type: organism-based; conditions: in vivo, po, 336 h, dose 100-300 mg/kg, time 14 day
[23] = Sub-acute toxicity in Kunming mouse assessed as change ALTL level at 30 to 100 mg/kg administered via gavage once every other day for 14 days; assay type: organism-based; conditions: in vivo, po, 336 h, dose 30-100 mg/kg, time 14 day
[24] = Sub-acute toxicity in Kunming mouse assessed as change ASTL level at 30 to 100 mg/kg administered via gavage once every other day for 14 days; assay type: organism-based; conditions: in vivo, po, 336 h, dose 30-100 mg/kg, time 14 day
[25] = target: Poly [ADP-ribose] polymerase 1 (Homo sapiens, UniProt P09874); assay: Binding affinity to PARP1 (unknown origin) assessed as DNA trapping activity incubated for 1 hr by Envision 2105 plate reader analysis
[26] = Sub-acute toxicity in Kunming mouse assessed as change CREA2 level at 30 to 100 mg/kg administered via gavage once every other day for 14 days; assay type: organism-based; conditions: in vivo, po, 336 h, dose 30-100 mg/kg, time 14 day
[27] = tested on: MDA-MB-436; assay: Antitumor activity against luciferase tagged human MDA-MB-436 cells xenografted in female NOD-SCID mouse assessed as median survival time at 3 mg/kg, po administered once a day for 34 days; assay type: functional; conditions: time 34 day

T1 sequence (Q9UGN5 whole entry): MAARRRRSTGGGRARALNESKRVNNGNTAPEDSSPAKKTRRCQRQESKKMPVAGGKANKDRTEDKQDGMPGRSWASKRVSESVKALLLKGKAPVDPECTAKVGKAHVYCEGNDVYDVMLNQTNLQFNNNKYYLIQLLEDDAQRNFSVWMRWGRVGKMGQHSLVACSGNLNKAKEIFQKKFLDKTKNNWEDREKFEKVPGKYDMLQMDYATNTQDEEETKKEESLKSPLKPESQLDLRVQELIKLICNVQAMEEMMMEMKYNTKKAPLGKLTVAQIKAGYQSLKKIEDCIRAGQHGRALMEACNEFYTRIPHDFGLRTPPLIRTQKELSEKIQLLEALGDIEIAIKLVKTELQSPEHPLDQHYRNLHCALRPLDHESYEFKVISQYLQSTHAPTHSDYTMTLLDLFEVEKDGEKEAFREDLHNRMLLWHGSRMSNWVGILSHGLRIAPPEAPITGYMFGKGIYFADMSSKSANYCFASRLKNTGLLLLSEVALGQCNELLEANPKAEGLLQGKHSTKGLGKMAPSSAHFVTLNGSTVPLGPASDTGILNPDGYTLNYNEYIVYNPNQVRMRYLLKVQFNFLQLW
Poly [ADP-ribose] polymerase 1, sequence (P09874 whole entry): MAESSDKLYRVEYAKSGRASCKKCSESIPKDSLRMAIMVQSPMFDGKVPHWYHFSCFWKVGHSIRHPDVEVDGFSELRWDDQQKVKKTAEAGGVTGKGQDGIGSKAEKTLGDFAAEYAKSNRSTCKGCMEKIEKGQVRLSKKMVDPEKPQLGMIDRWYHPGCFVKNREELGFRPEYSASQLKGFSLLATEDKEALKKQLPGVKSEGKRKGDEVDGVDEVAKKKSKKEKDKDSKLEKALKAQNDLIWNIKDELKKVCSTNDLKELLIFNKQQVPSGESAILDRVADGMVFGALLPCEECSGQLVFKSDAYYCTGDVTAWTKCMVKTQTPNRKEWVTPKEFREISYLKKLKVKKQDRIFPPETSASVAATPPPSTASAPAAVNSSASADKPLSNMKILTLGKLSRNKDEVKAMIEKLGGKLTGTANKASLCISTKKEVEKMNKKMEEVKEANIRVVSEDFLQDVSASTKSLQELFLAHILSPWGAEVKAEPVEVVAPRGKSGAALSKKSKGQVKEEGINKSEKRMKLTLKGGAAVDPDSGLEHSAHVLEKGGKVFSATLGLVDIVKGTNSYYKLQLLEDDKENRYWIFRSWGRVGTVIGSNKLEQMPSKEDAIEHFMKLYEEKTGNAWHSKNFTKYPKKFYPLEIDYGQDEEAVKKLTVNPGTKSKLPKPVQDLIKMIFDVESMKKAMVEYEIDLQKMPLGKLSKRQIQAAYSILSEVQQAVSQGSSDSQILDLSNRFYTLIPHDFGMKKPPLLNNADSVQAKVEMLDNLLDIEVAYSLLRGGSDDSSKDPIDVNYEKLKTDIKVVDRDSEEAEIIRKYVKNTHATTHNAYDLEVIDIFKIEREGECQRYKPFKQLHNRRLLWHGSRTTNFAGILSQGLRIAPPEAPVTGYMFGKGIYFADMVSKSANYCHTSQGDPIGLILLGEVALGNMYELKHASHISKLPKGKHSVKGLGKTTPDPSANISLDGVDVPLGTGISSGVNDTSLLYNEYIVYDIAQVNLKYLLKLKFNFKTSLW

Compound `CCc1cc2ncc(CN3CC=C(c4ccc(C#N)cn4)CC3)cc2[nH]c1=O` has an inhibition [1] of 72.9%, a t1/2 [2] of 76.07 h and a Cmax [3] of 10700 ng/mL. It also gave a Tmax [4] of 4.8 min, a Cmax [5] of 13900 ng/mL and a Cmax [6] of 7540 ng/mL. The Vd [7] was 0.21 L/kg, the inhibition [8] was “inactive” and the Activity [9] was 20.3%. For the same compound, the Activity [10] was 9.94%, the Activity [11] was 21.9% and the Activity [12] was 60.25%. For the same compound, the Activity [13] was 29.58%, the Activity [14] was “Active” and the Activity [15] was 59.4%. For the same compound, the Activity [16] was “Non-toxic”, the Activity [17] was “Active” and the Activity [18] was “Non-toxic”. For the same compound, the Activity [19] was “Non-toxic”, the EC50 [20] was 4.33 µM and the Activity [21] was “Non-toxic”. For the same compound, the Activity [22] was “Non-toxic”, the Activity [23] was “Non-toxic” and the Activity [24] was “Non-toxic”. The EC50 [25] was 0.0009 µM, the Activity [26] was “Non-toxic” and the Survival [27] was greater than 60 days.
